Data taken from patent publication US20100278925A1, “FORMULATIONS OF ORGANO-PLATINIC COMPOUNDS IN THE PRESENCE OF ASSOCIATIVE POLYMERS, PRODUCTS THUS OBTAINED AND USES THEREOF” (Coatex S.A. S., priority 2007, published 2010).

Test: Reference tests: oxaliplatin added into water without polymer or with non-associative polymer
Assay type: physicochemical
Conditions: oxaliplatin 10.5 g/L in water, pH 7, without polymer
Source text: This test is a reference which consists of adding the oxaliplatin into water, without the associative water-soluble polymer.
This test is a reference which consists of adding the oxaliplatin into water, […].
Next, 1.9 g of a water-soluble polymer with 30% solids content, said polymer being made up 36.9% by weight of methacrylic acid and 63.1% by weight of ethyl acrylate.

For O=C1[O][Pt]2([NH][C@@H]3CCCC[C@H]3[NH]2)[O]C1=O [oxaliplatin], the “Appearance of the result” value was “powder suspended in the water”.
